By microsomal CLint is commonly meant the capacity of the preparation to metabolise the compound, expressed as a volume cleared per time. What is called solubility is how much of the substance goes into solution per volume. What is called hepatocyte CLint is the rate of metabolic loss divided by the concentration. A high value points to faster metabolism. As a reminder, the EC50 is the concentration giving half of the maximal effect.

The values below come from patent US11667602B2, “Compounds and their use” (AstraZeneca AB, priority 2020, dated 2023).

Series [1] in a line: Human Liver Microsomal Stability (Test C). Conditions: for microsomal CLint: human, liver microsomes. The format is in vitro ADME. The method, boiled down:
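Human liver microsome incubation per the Wernevik et al. integrated DMPK panel protocol. Intrinsic clearance reported as CLint in μl/min/mg protein, averaged arithmetically over repeat runs.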
A general note: Microsomes from liver hold many membrane-bound enzymes, among them those of drug oxidation.

A further series can be described thus: Solubility (Test F). The series is classed as physicochemical. Particulars: arithmetic mean if run multiple times. As for the experimental part:
The assay was conducted according to the Solubility Assay described in pages 164-167 of Wernevik, J. et al., “A Fully Integrated Assay Panel for Early Drug Metabolism and Pharmacokinetics Profiling”, Assay and Drug Development Technologies, 2020, 18(4), 157-179. Data are reported in Table 36 as solubility ([…]. Where the assay was run multiple times for the same compound, the arithmetic mean is reported.

A short description of series [2]: Human Plasma Protein Binding (Test B). The format is in vitro ADME. Conditions: fraction unbound (fu). A digest of the protocol:
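Human plasma protein binding run per the published Wernevik et al. (2020) integrated DMPK panel protocol. Values are fraction unbound (fu, % free); repeat runs averaged arithmetically.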

A short description of series [3]: Rat Hepatocyte Stability (Test E). The format is in vitro ADME. Particulars: geometric mean if run multiple times; for hepatocyte CLint: rat, hepatocytes. A digest of the protocol:
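Run per the published AstraZeneca-type rat hepatocyte stability protocol (Wernevik et al. panel). Values are mean intrinsic clearance, Clint in μl/min/10^6 cells; geometric mean used for repeated runs.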

Series [4] can be described thus: Human Hepatocyte Stability (Test D). Particulars: geometric mean if run multiple times; for hepatocyte CLint at 1 µM: human, cryopreserved pooled human hepatocytes (LiverPool 10-Donor). The format is in vitro ADME. A digest of the protocol: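 Pooled 10-donor cryopreserved human hepatocytes (≥80% viable) in L-15 medium at 0.25×10^6 cells per 0.25 mL well. Compound added from 100 μM acetonitrile solution; incubated at 37 °C with shaking, acetonitrile-quenched, LC-MS analysed. Clint (μL/min/10^6 cells) from ln % parent vs time slope; geometric mean of repeat runs.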

A further series concerns the target T1, human RXFP1 (Homo sapiens, UniProt Q9HBX9).
T1 sequence (Q9HBX9 1-757): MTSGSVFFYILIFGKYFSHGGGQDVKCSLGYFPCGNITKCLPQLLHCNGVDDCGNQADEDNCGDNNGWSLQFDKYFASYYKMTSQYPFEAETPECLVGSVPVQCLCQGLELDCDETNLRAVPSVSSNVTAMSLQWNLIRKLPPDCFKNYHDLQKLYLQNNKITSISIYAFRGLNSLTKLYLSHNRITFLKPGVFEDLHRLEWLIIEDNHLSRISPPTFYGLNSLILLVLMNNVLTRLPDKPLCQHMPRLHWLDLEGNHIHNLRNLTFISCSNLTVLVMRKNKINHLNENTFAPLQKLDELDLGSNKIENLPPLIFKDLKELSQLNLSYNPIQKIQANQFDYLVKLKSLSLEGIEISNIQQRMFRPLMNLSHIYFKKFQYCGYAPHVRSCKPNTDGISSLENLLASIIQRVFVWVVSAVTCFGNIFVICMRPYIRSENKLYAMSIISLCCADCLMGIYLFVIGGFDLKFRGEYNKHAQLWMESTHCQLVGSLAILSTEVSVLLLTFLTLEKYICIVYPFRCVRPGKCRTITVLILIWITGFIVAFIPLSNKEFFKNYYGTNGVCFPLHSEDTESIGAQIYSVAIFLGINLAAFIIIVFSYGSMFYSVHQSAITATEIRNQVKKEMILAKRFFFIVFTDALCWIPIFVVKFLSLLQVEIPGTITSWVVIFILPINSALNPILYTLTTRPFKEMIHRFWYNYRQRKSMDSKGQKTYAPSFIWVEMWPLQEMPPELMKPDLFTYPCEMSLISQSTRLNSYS
Description: RXFP1 Hu cAMP (Test A). Conditions: RXFP1 Hu cAMP; for EC50: read-out: Test A EC50. The series is classed as cell-based. Also noted: expressed in transfected cells; host or cells: Jump-In T-REx CHO-K1 cells (ThermoFisher), induced with 10 ng/ml doxycycline for 24 h. A digest of the protocol:
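Cells: CHO-K1 stably carrying human RXFP1, expressed after 24 h 10 ng/ml doxycycline; 0.5 mM IBMX final, HTRF detection after 2 h at room temperature.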

In brackets after ≈: the same amount, converted by molar mass. Where only a bound is given, the exact number is not on record here.

`COc1cc(F)c(O[C@H]2CC[C@@](C)(C(=O)O)CC2)cc1C(=O)Nc1ccccc1C(=O)NCC1(C)CCC1` [Example 143, (1s,4s)-4-(2-Fluoro-4-methoxy-5-((2-(((1-methylcyclobutyl)methyl)-carbamoyl)phenyl)carbamoyl)phenoxy)-1-methylcyclohexane-1-carboxylic acid] registered a microsomal CLint in series [1] of less than 3 µL/min/mg. For the same compound, the solubility in “Solubility (Test F)” is 1.6 µM (≈ 0.843 µg/mL). Besides, in series [2], the “Test B Human Plasma Protein Binding (% free)” value is 0.68 % free. The same compound returned a hepatocyte CLint in series [3] of 24 µL/min/1e6 cells. Further, the hepatocyte CLint at 1 µM in series [4] turned out to be 6.9 µL/min/1e6 cells. Also, the “Test A Sinf” value at human RXFP1 came out at 130%.
`COc1cc(C#N)c(O[C@H]2CC[C@@](C)(C(=O)O)CC2)cc1C(=O)N[C@@H]1CCC[C@@H]1C(=O)NCC1(C)CCC1` [Example 360] displayed a microsomal CLint in series [1] of 8.4 µL/min/mg. In the series “Solubility (Test F)”, the solubility is greater than 1000 µM. The “Test B Human Plasma Protein Binding (% free)” value in series [2] turned out to be 15 % free. For the same compound, in series [3], the hepatocyte CLint amounted to 17 µL/min/1e6 cells. The hepatocyte CLint at 1 µM in series [4] amounted to 3.6 µL/min/1e6 cells. Besides, on human RXFP1, the “Test A Sinf” value was determined as 101% and the EC50 came to 100 nM.
`COc1cc(Cl)c(O[C@H]2CC[C@@](C)(C(=O)O)CC2)cc1C(=O)N[C@@H]1[C@H]2CC[C@H](C2)[C@@H]1C(=O)NCC(C)(C)C(F)(F)F` [Example 409]: the microsomal CLint in series [1] worked out at 18 µL/min/mg. Moreover, in “Solubility (Test F)”, the concentration in solution (solubility) was 960 µM (≈ 579 µg/mL). Also, in series [2], the “Test B Human Plasma Protein Binding (% free)” value came to 3.4 % free. For the same compound, in series [3], the intrinsic metabolic clearance (hepatocyte CLint) came to 7.1 µL/min/1e6 cells. In series [4], this compound registered a hepatocyte CLint at 1 µM of 3.1 µL/min/1e6 cells. Besides, at human RXFP1, the “Test A Sinf” value was determined as 107% and the concentration for a half-maximal effect (EC50) turned out to be 15 nM.
In series [1], `COc1cc(F)c(Cc2cn[nH]c2)cc1C(=O)N[C@@H]1[C@H]2CC[C@H](C2)[C@@H]1C(=O)Nc1cccc(S(=O)(=O)C(F)(F)F)c1` [Example 219, (1R,2S,3R,4S)-3-(5-((1H-Pyrazol-4-yl)methyl)-4-fluoro-2-methoxybenzamido)-N-(3-((trifluoromethyl)sulfonyl)phenyl)bicyclo[2.2.1]heptane-2-carboxamide] showed a microsomal CLint greater than 300 µL/min/mg. Also, in the series “Solubility (Test F)”, the concentration in solution (solubility) came to 5 µM (≈ 2.97 µg/mL). Besides, the “Test B Human Plasma Protein Binding (% free)” value in series [2] amounted to 0.19 % free. Moreover, the hepatocyte CLint in series [3] turned out to be 130 µL/min/1e6 cells. In series [4], the hepatocyte CLint at 1 µM came out at 78 µL/min/1e6 cells. Also, the “Test A Sinf” value at human RXFP1 was 113%.
For the compound `COc1cc(F)c(O[C@H]2CC[C@@](C)(C(=O)O)CC2)cc1C(=O)Nc1ccccc1C(=O)NCC(C)(C)C` [Example 142, (1s,4s)-4-(2-Fluoro-4-methoxy-5-((2-(neopentylcarbamoyl)phenyl)-carbamoyl)phenoxy)-1-methylcyclohexane-1-carboxylic acid], the intrinsic metabolic clearance (microsomal CLint) in series [1] is less than 3 µL/min/mg. This compound also came in with a solubility in “Solubility (Test F)” of 6.5 µM (≈ 3.34 µg/mL). For the same compound, in series [2], the “Test B Human Plasma Protein Binding (% free)” value was determined as 1.2 % free. Besides, the hepatocyte CLint in series [3] was 9.8 µL/min/1e6 cells. For the same compound, the hepatocyte CLint at 1 µM in series [4] is 3.3 µL/min/1e6 cells. At human RXFP1, the “Test A Sinf” value worked out at 129% and the EC50 worked out at 320 nM.
For `COc1cc(F)c(O[C@H]2CC[C@@](C)(C(=O)O)CC2)cc1C(=O)NC1C2CCC(C2)C1C(=O)Nc1cccc(S(=O)(=O)C(F)(F)F)c1` (single isomer, unassigned) [Example 586, (1R,4s)-4-(2-Fluoro-4-methoxy-5-(((1S*,2S*,3R*,4R*)-3-((3-((trifluoromethyl)sulfonyl)phenyl)carbamoyl)bicyclo[2.2.1]heptan-2-yl)carbamoyl)phenoxy)-1-methylcyclohexane-1-carboxylic acid], the microsomal CLint in series [1] amounted to 12 µL/min/mg. In “Solubility (Test F)”, the concentration in solution (solubility) came to 190 µM (≈ 127 µg/mL). Besides, the “Test B Human Plasma Protein Binding (% free)” value in series [2] worked out at 0.33 % free. In series [3], this compound came in with an intrinsic metabolic clearance (hepatocyte CLint) of 17 µL/min/1e6 cells. This compound also yielded a hepatocyte CLint at 1 µM in series [4] of 4.3 µL/min/1e6 cells. Also, at human RXFP1, the “Test A Sinf” value turned out to be 105% and the EC50 worked out at 1.5 nM.
Consider `COc1cc(F)c(O[C@H]2CC[C@@](C)(C(=O)O)CC2)cc1C(=O)Nc1cc(Cl)ccc1C(=O)NCC1(C)CCC1` [Example 155, (1s,4s)-4-(5-((5-Chloro-2-(((1-methylcyclobutyl)methyl)carbamoyl)phenyl)carbamoyl)-2-fluoro-4-methoxyphenoxy)-1-methylcyclohexane-1-carboxylic acid], for which the microsomal CLint in series [1] was determined as 5.4 µL/min/mg. In addition, the solubility in “Solubility (Test F)” worked out at 37 µM (≈ 20.8 µg/mL). The “Test B Human Plasma Protein Binding (% free)” value in series [2] is recorded as 0.49 % free. In addition, the hepatocyte CLint in series [3] was 30 µL/min/1e6 cells. The compound further had a hepatocyte CLint at 1 µM in series [4] of 11 µL/min/1e6 cells. In addition, on human RXFP1, the “Test A Sinf” value amounted to 126% and the 50% effective concentration (EC50) was determined as 8.4 nM.
With `COc1cc(F)c(O[C@H]2CC[C@@H](C(=O)O)CC2)cc1C(=O)NC1=C(C(=O)Nc2ccc(F)c(C(F)(F)F)c2)CCC1` [Example 214, (1s,4s)-4-(2-Fluoro-5-((2-((4-fluoro-3-(trifluoromethyl)phenyl)carbamoyl)cyclopent-1-en-1-yl)carbamoyl)-4-methoxyphenoxy)cyclohexane-1-carboxylic acid], the microsomal CLint in series [1] is less than 3 µL/min/mg. The same compound had a solubility in “Solubility (Test F)” of 400 µM (≈ 233 µg/mL). Besides, the “Test B Human Plasma Protein Binding (% free)” value in series [2] came out at 0.090 % free. This compound gave a hepatocyte CLint in series [3] of 5.3 µL/min/1e6 cells. In series [4], this compound displayed a hepatocyte CLint at 1 µM of 2.3 µL/min/1e6 cells. Further, on human RXFP1, the “Test A Sinf” value was 115%.
`COc1cc(F)c(O[C@H]2CC[C@@](C)(C(=O)O)CC2)cc1C(=O)N[C@@H]1[C@H]2CC[C@H](C2)[C@@H]1C(=O)N[C@@H]1CCCN(S(=O)(=O)C(F)(F)F)C1` [Example 604] registered a microsomal CLint in series [1] of 110 µL/min/mg. This compound also had a solubility in “Solubility (Test F)” of 10 µM (≈ 6.78 µg/mL). In addition, the “Test B Human Plasma Protein Binding (% free)” value in series [2] was found to be 6.7 % free. Also, the hepatocyte CLint in series [3] came out at 14 µL/min/1e6 cells. Also, the hepatocyte CLint at 1 µM in series [4] was determined as 13 µL/min/1e6 cells. On human RXFP1, the “Test A Sinf” value amounted to 105% and the 50% effective concentration (EC50) worked out at 110 nM.
`COc1cc(F)c(-c2ccc(CCC(=O)O)nc2)cc1C(=O)N[C@@H]1[C@H]2CC[C@H](C2)[C@@H]1C(=O)Nc1cccc(S(=O)(=O)C(F)(F)F)c1` [Example 258, 3-(5-(2-Fluoro-4-methoxy-5-(((1S,2R,3S,4R)-3-((3-((trifluoromethyl)sulfonyl)phenyl)carbamoyl)bicyclo[2.2.1]heptan-2-yl)carbamoyl)phenyl)pyridin-2-yl)propanoic acid]: the microsomal CLint in series [1] is 65 µL/min/mg. This compound displayed a solubility in the series “Solubility (Test F)” greater than 1000 µM. Moreover, the “Test B Human Plasma Protein Binding (% free)” value in series [2] was 1.7 % free. In series [3], this compound registered a hepatocyte CLint of 35 µL/min/1e6 cells. The same compound registered a hepatocyte CLint at 1 µM in series [4] of 30 µL/min/1e6 cells. At human RXFP1, the “Test A Sinf” value came out at 106% and the concentration giving a half-maximal response (EC50) came out at 120 nM.
For `COc1cc(F)c(O[C@H]2CC[C@@](C)(C(=O)O)CC2)cc1C(=O)N[C@@H]1COCC[C@@H]1C(=O)Nc1cccc(S(=O)(=O)C(F)(F)F)c1` (relative stereo) [Example 559, (1R,4s)-4-(2-Fluoro-4-methoxy-5-(((3S*,4S*)-4-((3-((trifluoromethyl)sulfonyl)phenyl)carbamoyl)tetrahydro-2H-pyran-3-yl)carbamoyl)phenoxy)-1-methylcyclohexane-1-carboxylic acid], in series [1] (human liver microsomes), the “Test C Human Liver Microsomal Stability Clint” value was determined as 9.4 µL/min/mg. For the same compound, the solubility in the series “Solubility (Test F)” is listed as 900 µM (≈ 595 µg/mL). In series [2], the “Test B Human Plasma Protein Binding (% free)” value was found to be 2.5 % free. Also, in series [3] (rat hepatocytes), the “Test E Rat Hepatocyte Stability Clint” value came out at 8.4 μL/min/10^6 cells. Further, in series [4] (human hepatocytes), the “Test D Human Hepatocyte Stability Clint” value is 4.1 μL/min/10^6 cells. Moreover, on human RXFP1, the “Test A Sinf” value was 102% and the EC50 came to 1200 nM.
